# Values quoted from earlier work in patent US20090221462A1, “Fragrance compositions” (priority 2005, published 2009).
# Settings: at 25° C.
SMILES,pKa,pKa (cis) (cis isomer)
O=C(O)Cc1ccccc1 [phenylacetic acid],4.28,–
O=C(O)C=Cc1ccccc1 [cinnamic acid],–,3.89
